Test results reported in US20080096967A1, “Formulations for Injection of Catecholic Butanes, Including Ndga Compounds, Into Animals” (priority 2005, published 2008).

How the values were obtained:
[1] = tested on: Beagle dogs; conditions: dog, in vivo
Description: A single male dog was administered M4N (12.5 mg/mL) in 20% HP-β-CD/50% PEG 300 via IV infusion (10 mL/kg/hour). Increased pressure in the infusion line and test formulation leakage from the syringe occurred. […] Because the observations were considered severe, the animal was considered moribund and scheduled for euthanization.
The dog recovered within 1 hour and 15 minutes of dosing and presented no continued or additional adverse clinical signs.
An additional male and female were dosed at 150 mg/kg and then at 125 mg/kg. […] Both animals recovered within 1 hour of dosing and no additional important clinical signs were subsequently noted.
Two extra (naïve) dogs were added to the study design and dosed at 75 mg/kg/day at an infusion rate of 5 mL/kg/hour, for a total of 12 doses in a 13-day interval. […] Clinical observations included soft feces in the male and frothy white emesis in the female; these findings were infrequent or isolated incidences and are considered unrelated to treatment. […] Both dogs recovered from any noted clinical signs within 1 hour of dosing. […] No other treatment-related observations were noted.

[2] = Solubility of M4N in non-ionic surfactants (Table 21, visual inspection); format: physicochemical
Description: A 10 mL solution of M4N at a concentration of about 60 mg/mL in Tween® 20 was made as follows. About 10 mL of Tween® 20 were added to a glass beaker containing a stir bar. The beaker was placed on a magnetic plate and the stir bar was set to stir at medium speed. About 600 mg of M4N were slowly added to the Tween® 20 in the center of the beaker with the aid of a spatula to prevent M4N from sticking to the beaker wall. The M4N/Tween® 20 mixture was stirred for 2 hr or until all M4N had dissolved or was uniformly suspended without any clumps being present. The M4N/Tween® 20 mixture was heated at about 60° C. for about 30 min. (or longer if a larger volume of solution was desired, for example, 1 hr at 60° C. for 500 mL of the M4N/Tween® 20 mixture), or longer as need to ensure complete dissolution of M4N. […] The final M4N/Tween® 20 solution was stored at room temperature and was kept protected from light. If crystals were to form during storage, the M4N/Tween® 20 solution could be heated again at 60° C. for about 1 hr, with stirring, on a hot magnetic plate or until all M4N was dissolved back in solution.
This process may be scaled up or down to obtain the requisite volume or concentration of M4N and the heating temperature may be increased or decreased to achieve dissolution of M4N. Formulations containing M4N in other non-ionic surfactant, ionic surfactants or amphiphilic molecules may be similarly made, such as, for example, by substituting Tween® 20 in the process described above with Tween® 80, other solubilizing agents, and combinations thereof.

[3] = M4N stability in 11-14 mg/mL PEG300/HP-β-CD solutions at room temperature (RP-HPLC); format: physicochemical; conditions: for Observed M4N: room temperature
Description: To support manufacturing specifications, this study examined the 24-hour room temperature stability of combinations of PEG300/HP-β-CD at varying M4N target concentrations. Stock samples of M4N stocks were prepared in 100% PEG 300 at drug concentrations of 33-56 mg/mL at 60° C. as follows.
M4N bulk drug was solubilized to concentrations of 33, 44, 48, 52, 55 and 56 mg/mL (w/w) in PEG 300 using the procedure set forth in Examples 13 and 16, following incubation of at least 2 hours at 60° C. Vigorous vortexing and mixing were necessary for complete solubilization of M4N above 44 mg/mL. The M4N stock solutions were filtered through a 0.45 μm SFCA filter and used within 30 minutes of preparation. Separately, a solution of 40% (w/v) HP-β-CD was prepared in sterile WFI and filtered. Combinations of the 40% HP-β-CD stock and the M4N/PEG 300 stocks were combined in 1.5 mL polypropylene microtubes.
The requisite amount of M4N stock was added to 40% HP-β-CD to yield the final concentrations of drug and excipients listed in Table 28. Samples were gently rotated (˜12 rpm) at room temperature. At 2 and 24 hours of incubation, samples were centrifuged 2 minutes at 13,000 rpm and 50 μL aliquots were removed for RP-HPLC analysis.

COc1ccc(C[C@@H](C)[C@@H](C)Cc2ccc(OC)c(OC)c2)cc1OC [Formulation M4N, meso-1,4-bis(3,4-dimethoxyphenyl)-2,3-dimethylbutane]
clinical signs following dosing [1]: uncoordinated/unbalanced movements and frequent urination | notable post dose observation [1]: single observation of red-brown urine in the female on SD 7 | time to recovery after dosing [1]: 1 h and 0.25 h | Stability at Room Temperature ([2]; 50% Tween ® 20, 50% PEG 400, M4N 30 mg/mL): >3 days | Dissolution After Heating ([2]; 50% Tween ® 20, 50% PEG 400, M4N 30 mg/mL, heating at 65° C.): Y at 65 °C | Stability at Room Temperature ([2]; 50% Tween ® 20, 50% PEG 400, M4N 40 mg/mL): >3 days | Dissolution After Heating ([2]; 50% Tween ® 20, 50% PEG 400, M4N 40 mg/mL, heating at 65° C.): Y at 65 °C | Stability at Room Temperature ([2]; 50% Tween ® 20, 50% PEG 400, M4N 50 mg/mL): >3 days | Dissolution After Heating ([2]; 50% Tween ® 20, 50% PEG 400, M4N 50 mg/mL, heating at 65° C.): Y at 65 °C | Stability at Room Temperature ([2]; 50% Tween ® 20, 50% PEG 400, M4N 60 mg/mL): >3 days | Dissolution After Heating ([2]; 50% Tween ® 20, 50% PEG 400, M4N 60 mg/mL, heating at 65° C.): Y at 65 °C | stable at room temperature ([2]; 50% Tween® 20 and 50% PEG 400, after cooling): more than 3 days | Stability at Room Temperature ([2]; Tween ® 20 100% (v/v), M4N 1 mg/mL): >7 days | Stability at Room Temperature ([2]; Tween ® 20 100% (v/v), M4N 10 mg/mL): >7 days | Dissolution After Heating ([2]; Tween ® 20 100% (v/v), M4N 10 mg/mL, heating at 50° C.): Y at 50 °C | Stability at Room Temperature ([2]; Tween ® 20 100% (v/v), M4N 20 mg/mL): >7 days | Dissolution After Heating ([2]; Tween ® 20 100% (v/v), M4N 20 mg/mL, heating at 50° C.): Y at 50 °C | Stability at Room Temperature ([2]; Tween ® 20 100% (v/v), M4N 40 mg/mL): <3 days | Dissolution After Heating ([2]; Tween ® 20 100% (v/v), M4N 40 mg/mL, heating at 50° C.): Y at 50 °C | Stability at Room Temperature ([2]; Tween ® 20 100% (v/v), M4N 60 mg/mL): <3 days | Dissolution After Heating ([2]; Tween ® 20 100% (v/v), M4N 60 mg/mL, heating at 50° C.): Y at 50 °C | Dissolution After Heating ([2]; Tween ® 20 100% (v/v), M4N 80 mg/mL, heating at 50° C.): Y at 50 °C | Dissolution After Heating ([2]; Tween ® 20 100% (v/v), M4N 100 mg/mL, heating at 50° C.): Y at 50 °C | Stability at Room Temperature ([2]; Tween ® 80 100% (v/v), M4N 1 mg/mL): >3 days | Stability at Room Temperature ([2]; Tween ® 80 100% (v/v), M4N 10 mg/mL): >3 days | Dissolution After Heating ([2]; Tween ® 80 100% (v/v), M4N 10 mg/mL, heating at 50° C.): Y at 50 °C | Stability at Room Temperature ([2]; Tween ® 80 100% (v/v), M4N 50 mg/mL): <1 days | Dissolution After Heating ([2]; Tween ® 80 100% (v/v), M4N 50 mg/mL, heating at 50° C.): Y at 50 °C | stable at room temperature ([2]; Tween® 20, M4N 1 mg/mL): more than 7 days | stable at room temperature ([2]; Tween® 20, M4N 10 mg/mL and 20 mg/mL): more than 7 days | stable at room temperature ([2]; Tween® 20, M4N 40 mg/mL and 80 mg/mL): less than 3 days | solution upon cooling ([2]; Tween® 20, M4N 80 mg/mL and 100 mg/mL): becoming insoluble upon cooling | concentrations at which M4N remained in solution after cooling ([2]; Tween® 20, dissolved at 50° C.): up to 60 mg/mL | stable at room temperature ([2]; Tween® 80, M4N 1 mg/mL): more than 3 days | stable at room temperature ([2]; Tween® 80, M4N 10 mg/mL): more than 3 days | stable at room temperature ([2]; Tween® 80, M4N 50 mg/mL): less than 1 day | concentrations at which M4N remained in solution after cooling ([2]; Tween® 80, dissolved at 50° C.): up to 50 mg/mL | Observed M4N ([3]; 11 mg/mL M4N, 20% PEG300, 32% HP-β-CD, t = 2 hours): 11.5 mg/mL | Observed M4N ([3]; 11 mg/mL M4N, 20% PEG300, 32% HP-β-CD, t = 24 hours): 11.4 mg/mL | Observed M4N ([3]; 11 mg/mL M4N, 25% PEG300, 30% HP-β-CD, t = 2 hours): 11.3 mg/mL | Observed M4N ([3]; 11 mg/mL M4N, 25% PEG300, 30% HP-β-CD, t = 24 hours): 11.3 mg/mL | Observed M4N ([3]; 11 mg/mL M4N, 33% PEG300, 27% HP-β-CD, t = 2 hours): 11.4 mg/mL | Observed M4N ([3]; 11 mg/mL M4N, 33% PEG300, 27% HP-β-CD, t = 24 hours): 11.3 mg/mL | Observed M4N ([3]; 12 mg/mL M4N, 25% PEG300, 30% HP-β-CD, t = 2 hours): 11.8 mg/mL | Observed M4N ([3]; 12 mg/mL M4N, 25% PEG300, 30% HP-β-CD, t = 24 hours): 11.6 mg/mL | Observed M4N ([3]; 13 mg/mL M4N, 25% PEG300, 30% HP-β-CD, t = 2 hours): 12.7 mg/mL | Observed M4N ([3]; 13 mg/mL M4N, 25% PEG300, 30% HP-β-CD, t = 24 hours): 12.7 mg/mL | Observed M4N ([3]; 14 mg/mL M4N, 25% PEG300, 30% HP-β-CD, t = 2 hours): 13.5 mg/mL | Observed M4N ([3]; 14 mg/mL M4N, 25% PEG300, 30% HP-β-CD, t = 24 hours): 13.5 mg/mL | stability ([3]; 11-14 mg/mL M4N, 25% PEG 300 and 30% HP-β-CD, 24 hours at room temperature): stable
